Measurements: publication PMC8284453 (Antimicrobial Agents and Chemotherapy, 2021)
≈ marks a conversion by molar mass, not a printed value. Where “and” joins values, the source holds several entries; their conditions need not be identical. Identical values can stand only once. Like-named read-outs stand apart in the source and are kept apart here.

Columns and labels:
[1] = tested on: Enterobacterales expressing class A carbapenemases (KPC); experiment: organism not typed; type: cell-based, K. pneumoniae, E. coli, E. cloacae, Klebsiella oxytoca
[2] = tested on: isogenic strains of E. coli expressing Ambler class A, B, C, and D enzymes; experiment: microbe, parasite or virus in culture; type: cell-based, Escherichia coli
[3] = tested on: Enterobacterales expressing class C cephalosporinases; experiment: organism not typed
[4] = tested on: K. pneumoniae ATCC BAA-1705 (KPC-2); experiment: 24-h time-kill assay; type: cell-based; details: Klebsiella pneumoniae, ATCCBAA1705; lowest concentration with ≥3-log10 CFU/ml reduction at 24 h; read-out: MBC
Procedure: (§1) In vitro antibacterial time-kill assay. […] Time-kill assays were performed in 14 ml glass tubes or deep-well storage plates with a bacterial inoculum in CAMHB of 5 × 10^5 CFU/ml. The tubes/plates were incubated at 37°C with shaking at 200 rpm, and aliquots were drawn at six time points (0, 2, 4, 6, 8, and 24 h) to conduct 0.5 log10 dilutions in CAMHB in 96-well plates that were incubated overnight at 37°C and used to ascertain viable bacterial counts. The lowest quantifiable amount by this method is 2 log10 CFU/ml.

[5] = tested on: K. pneumoniae 752286 (OXA-48); experiment: 24-h time-kill assay; type: cell-based; details: Klebsiella pneumoniae, 24 h
Procedure: as §1

[6] = tested on: E. cloacae ECL01 (TEM-72, ACT-1, P99AmpC); experiment: 24-h time-kill assay; type: cell-based; details: Enterobacter cloacae; lowest concentration with ≥3-log10 CFU/ml reduction at 24 h; read-out: MBC
Procedure: as §1

[7] = tested on: E. coli ESBL4 (CTX-M-15); experiment: 24-h time-kill assay; type: cell-based
Procedure: as §1

[8] = tested on: K. pneumoniae 752286 (OXA-48); experiment: Broth microdilution MIC; type: cell-based; details: Klebsiella pneumoniae
[9] = tested on: E. cloacae ECL01 (TEM-72, ACT-1, P99AmpC); experiment: Broth microdilution MIC; type: cell-based; details: Enterobacter cloacae
[10] = tested on: Enterobacterales expressing class C cephalosporinases
[11] = tested on: K. pneumoniae ATCC BAA-1705 (KPC-2); experiment: Broth microdilution MIC; type: cell-based; details: Klebsiella pneumoniae, ATCCBAA1705

For `Nc1nc(/C(=C/CC(=O)O)C(=O)N[C@@H]2C(=O)N3C(C(=O)O)=CCS[C@H]23)cs1` [CTB, ceftibuten], the MIC ([1]; K. pneumoniae 897067 (KPC)) was 2 µg/mL (≈ 4.87 µM), the MIC ([1]; K. pneumoniae UMM (KPC-2, SHV-5, TEM-1)) was 1 µg/mL (≈ 2.44 µM) and the “Fold increase in MIC compared to vector control” value (shortened to “Fold increase in MIC”) [2] was 16 and 32. For the same molecule, the “Fold increase in MIC” value ([2]; E. coli expressing ACT-17 (class C), inhibitor fixed at 4 μg/ml) was 1,024, the “Fold increase in MIC” value ([2]; E. coli expressing CMY-2 (class C), inhibitor fixed at 4 μg/ml) was 1,024 and the “Fold increase in MIC” value ([2]; E. coli expressing CMY-42 (class C), inhibitor fixed at 4 μg/ml) was ≥1,024. The “Fold increase in MIC” value ([2]; E. coli expressing CTX-M-15 (class A), inhibitor fixed at 4 μg/ml) was 64, the “Fold increase in MIC” value ([2]; E. coli expressing GES-5 (class A), inhibitor fixed at 4 μg/ml) was 8 and the “Fold increase in MIC” value ([2]; E. coli expressing NDM-1 (class B), inhibitor fixed at 4 μg/ml) was ≥1,024. The “Fold increase in MIC” value ([2]; E. coli expressing OXA-23 (class D), inhibitor fixed at 4 μg/ml) was 2, the “Fold increase in MIC” value ([2]; E. coli expressing OXA-48 (class D), inhibitor fixed at 4 μg/ml) was 4 and the “Fold increase in MIC” value ([2]; E. coli expressing OXA-163 (class D), inhibitor fixed at 4 μg/ml) was 32. The “Fold increase in MIC” value ([2]; E. coli expressing OXA-181 (class D), inhibitor fixed at 4 μg/ml) was 2, the “Fold increase in MIC” value ([2]; E. coli expressing P99/AmpC (class C), inhibitor fixed at 4 μg/ml) was ≥1,024 and the “Fold increase in MIC” value ([2]; E. coli expressing PER-1 (class A), inhibitor fixed at 4 μg/ml) was 1,024. For the same molecule, the “Fold increase in MIC” value ([2]; E. coli expressing SHV-5 (class A), inhibitor fixed at 4 μg/ml) was 128, the “Fold increase in MIC” value ([2]; E. coli expressing SHV-12 (class A), inhibitor fixed at 4 μg/ml) was 256 and the “Fold increase in MIC” value ([2]; E. coli expressing TEM-10 (class A), inhibitor fixed at 4 μg/ml, modal MIC, 4 replicates) was 4. The “Fold increase in MIC” value ([2]; E. coli expressing VEB-9 (class A), inhibitor fixed at 4 μg/ml) was ≥1,024, the MIC ([2]; Escherichia coli, read-out: Vector control MIC) was 1 µg/mL (≈ 2.44 µM) and the MIC50 [3] was 16 µg/mL (≈ 39 µM). The MIC90 [3] was at least 64 µg/mL, the MBC [4] was 16 µg/mL (≈ 39 µM) and the MBC [5] was at least 128 µg/mL. For the same molecule, the MBC [6] was over 32 µg/mL, the MBC ([7]; Escherichia coli, lowest concentration with ≥3-log10 CFU/ml reduction at 24 h, read-out: MBC) was over 32 µg/mL and the “outcome of 24-h time-kill assay” value ([7]; Fig. 3a, CTB 2 μg/ml with BLI at 4 μg/ml, CTB alone 8 μg/ml, amoxicillin 8/clavulanic acid 4 μg/ml, penems 2 μg/ml) was “initial killing, but the strains grew to control levels by 24 h”. For the same molecule, the MIC [8] was 128 µg/mL (≈ 312 µM), the MIC [9] was 64 µg/mL (≈ 156 µM) and the MIC90 ([10]; 25 isolates, BLI fixed at 4 μg/ml, AMC 2:1) was at least 64 µg/mL. The MIC ([10]; C. freundii 134390 (AmpC, TEM-1)) was 4 µg/mL (≈ 9.75 µM), the MIC ([10]; E. aerogenes 110099 (AmpC, SHV-12)) was 32 µg/mL (≈ 78 µM) and the MIC ([10]; E. aerogenes 111707 (AmpC, TEM-1)) was 2 µg/mL (≈ 4.87 µM). For the same molecule, the MIC ([10]; E. aerogenes 111902 (AmpC, TEM-1)) was at least 64 µg/mL, the MIC ([10]; E. coli 128 (AmpC, SHV-12, TEM-1, Toho-2)) was 2 µg/mL (≈ 4.87 µM) and the MIC ([10]; E. coli 3102 (AmpC, CTX-M-15, TEM-1)) was 32 µg/mL (≈ 78 µM). The MIC ([10]; E. coli CH1 (AmpC, CTX-M-15, SHV-1, SHV-5, TEM-1)) was at least 64 µg/mL, the MIC ([10]; E. coli EC469 (AmpC, SHV-12, TEM-1)) was 2 µg/mL (≈ 4.87 µM) and the MIC ([10]; E. coli J53 (AmpC, SHV-5, TEM-1)) was 8 µg/mL (≈ 19.5 µM). It also gave an MIC ([10]; E. coli SI-P026TC (CMY-2, TEM-1)) of at least 64 µg/mL, an MIC ([10]; E. coli SI-PO26 (AmpC, CMY-2, TEM-1)) of at least 64 µg/mL and an MIC ([10]; K. pneumoniae 129032 (MOX-2, SHV-12, TEM-1)) of 16 µg/mL (≈ 39 µM). The MIC ([10]; K. pneumoniae 178279 (AmpC, SHV-12, TEM-1)) was 8 µg/mL (≈ 19.5 µM), the MIC ([10]; K. pneumoniae 212027 (AmpC, FOX-5, TEM-1)) was 16 µg/mL (≈ 39 µM) and the MIC ([10]; K. pneumoniae 217917 (CMY-2, TEM-1)) was 8 µg/mL (≈ 19.5 µM). The MIC ([10]; K. pneumoniae 301313 (AmpC, SHV-12, TEM-1)) was at least 64 µg/mL, the MIC ([10]; K. pneumoniae 398845 (CMY-2, SHV-12, TEM-1)) was 16 µg/mL (≈ 39 µM) and the MIC ([10]; K. pneumoniae SI-F100 (CMY-2, SHV-5, TEM-1)) was 2 µg/mL (≈ 4.87 µM). It also gave an MIC ([10]; P. mirabilis SI-F014 (AmpC, TEM-72)) of at least 64 µg/mL, an MIC ([10]; S. marcescens 132253 (AmpC, CTX-M-3, OXA-1, SHV-12, TEM-1)) of at least 64 µg/mL and an MIC ([10]; S. marcescens 134434 (AmpC, SHV-12, TEM-1)) of 32 µg/mL (≈ 78 µM). The MIC ([10]; S. marcescens 142397 (AmpC, SHV-7, TEM-1)) was at least 64 µg/mL, the MIC ([10]; S. marcescens 156212 (AmpC, SHV-12, TEM-1)) was 8 µg/mL (≈ 19.5 µM) and the MIC ([10]; S. marcescens 192478 (AmpC, SHV-12, TEM-1)) was 8 µg/mL (≈ 19.5 µM). The MIC ([10]; S. marcescens 218068 (AmpC, SHV-7, TEM-1)) was 32 µg/mL (≈ 78 µM) and the MIC [11] was 16 µg/mL (≈ 39 µM).
